ChEMBL document CHEMBL1201862, “PubChem BioAssay data set” (2004)
Active and inactive are the calls of the source.

Key:
CAAX prenyl protease 2 = CAAX prenyl protease 2 (Homo sapiens, UniProt Q9Y256); assay: inhibition of Ras-converting CAAX protease Rce1 – biochemical, yeast membranes, quenched-peptide fluorescence, cherry-pick, dose response (AID 588849)
Trypsin = Trypsin (Sus scrofa, UniProt P00761); assay: trypsin protease activity blockade – biochemical, quenched peptide fluorescence, cherry-pick, selectivity assay for Rce1 protease inhibitor project, dose response (AID 488789)
Vero = assay: cells; assay type: functional, cell-based; conditions: Chlorocebus sabaeus
[1] = Vero E6 cell cytotoxicity, dose response, cytotoxicity control for non-replicating M. tuberculosis project, secondary assay (AID 492998); assay type: functional, VeroE6; conditions: Vero C1008
[2] = viability of uninfected HEp-2 cells – cell-based, HTS, cytotoxicity control for RSV inhibitor project, dose response (AID 2410); assay type: functional; conditions: human respiratory syncytial virus
[3] = HepG2 cell cytotoxicity, dose response, cytotoxicity control for non-replicating M. tuberculosis project (AID 489018); assay type: functional; conditions: Mycobacterium tuberculosis
HEK293 [4] = assay: membrane integrity loss in HEK cells – cell-based, fluorescence, cytotoxicity control for IDE activator project, dose response (AID 588440); assay type: functional; conditions: Homo sapiens;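 further: cytotoxicity by LDH release measuring loss of membrane integrity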
Insulin-degrading enzyme [5] = biological target: T1, Insulin-degrading enzyme (Homo sapiens, UniProt P14735); assay: cellular IDE activation of Abeta substrate cleavage – fluorescence polarization, HEK cells, dose response (AID 588439); assay type: functional, cell-based
T1 sequence (P14735 whole entry): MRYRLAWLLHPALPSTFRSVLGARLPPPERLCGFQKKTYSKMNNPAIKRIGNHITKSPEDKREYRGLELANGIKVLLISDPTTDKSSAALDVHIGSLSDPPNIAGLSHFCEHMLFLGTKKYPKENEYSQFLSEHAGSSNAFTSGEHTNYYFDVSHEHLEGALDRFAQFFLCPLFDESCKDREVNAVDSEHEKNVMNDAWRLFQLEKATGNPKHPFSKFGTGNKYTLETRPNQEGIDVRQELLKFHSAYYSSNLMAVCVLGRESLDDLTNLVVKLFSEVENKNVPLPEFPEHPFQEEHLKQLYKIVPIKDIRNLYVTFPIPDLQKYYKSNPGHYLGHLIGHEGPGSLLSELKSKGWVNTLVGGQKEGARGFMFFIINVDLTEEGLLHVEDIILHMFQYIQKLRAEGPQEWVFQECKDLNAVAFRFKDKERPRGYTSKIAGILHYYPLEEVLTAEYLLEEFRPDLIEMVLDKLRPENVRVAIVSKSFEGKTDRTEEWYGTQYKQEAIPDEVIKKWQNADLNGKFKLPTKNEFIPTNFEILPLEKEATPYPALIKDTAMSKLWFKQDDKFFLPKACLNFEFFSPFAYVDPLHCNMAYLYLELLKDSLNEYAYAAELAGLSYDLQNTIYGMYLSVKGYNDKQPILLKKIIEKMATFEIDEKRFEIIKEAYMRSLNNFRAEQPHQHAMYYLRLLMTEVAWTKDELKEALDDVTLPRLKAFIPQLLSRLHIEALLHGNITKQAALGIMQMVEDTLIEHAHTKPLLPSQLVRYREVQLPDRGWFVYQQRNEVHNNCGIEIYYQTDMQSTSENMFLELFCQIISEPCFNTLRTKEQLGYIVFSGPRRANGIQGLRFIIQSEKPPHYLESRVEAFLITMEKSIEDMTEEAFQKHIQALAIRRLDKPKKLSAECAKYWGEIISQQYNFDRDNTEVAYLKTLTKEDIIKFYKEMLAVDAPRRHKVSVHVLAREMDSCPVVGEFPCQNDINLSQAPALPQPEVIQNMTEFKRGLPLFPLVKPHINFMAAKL

HEK293 [6] = assay: optical interference in Abeta FP readout, dose response, artefact control for IDE activator project, biochemical, fluorescence polarization (AID 588442); assay type: functional, cell-based; conditions: Homo sapiens
cells = assay type: functional
A-375 = assay: proliferation inhibition in MITF-low A375 cells – cell-based, cherry-pick samples, set 2, counter-screen for MITF modulator project, dose response (AID 540335); assay type: functional; conditions: Homo sapiens
[7] = THP-1 cell cytotoxicity, dose response, cytotoxicity control for non-replicating M. tuberculosis project (AID 489025); assay type: functional
Insulin-degrading enzyme [8] = biological target: T1, Insulin-degrading enzyme; assay: recombinant IDE activation, cell-free – biochemical, fluorescence polarization, counter-screen for IDE activator project, dose response (AID 588681)
Jurkat = assay: blockers of NF-kB activation in T cells – Jurkat, luciferase reporter, luminescence, B- and T-cell, dose response (AID 489004); assay type: functional, cell-based; conditions: Homo sapiens;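 further: NF-kB luciferase reporter Jurkat cells stimulated with PMA plus ionomycin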
[9] = biological target: Luciferin 4-monooxygenase (Photinus pyralis, UniProt P08659); assay: inhibition of purified Photinus pyralis luciferase – biochemical, luminescence, dose response (AID 1891)
BJ [10] = assay: BJ-TERT fibroblast viability loss – cell-based, RAS-independent, luminescence, dose response (AID 1933); assay type: functional; conditions: Homo sapiens
[11] = biological target: T2, Orexin/Hypocretin receptor type 1 (Homo sapiens, UniProt O43613); assay: (§1) Fluorescence-based cell-based high throughput dose response assay for antagonists of the orexin 1 receptor (OX1R; HCRTR1). [Related pubchem assays (depositor defined):AID434989, AID435008, AID463079, AID485270, AID492963, AID492964, AID492965, AID493232, AID504717, AID504718]; assay type: functional
T2 sequence (O43613 whole entry): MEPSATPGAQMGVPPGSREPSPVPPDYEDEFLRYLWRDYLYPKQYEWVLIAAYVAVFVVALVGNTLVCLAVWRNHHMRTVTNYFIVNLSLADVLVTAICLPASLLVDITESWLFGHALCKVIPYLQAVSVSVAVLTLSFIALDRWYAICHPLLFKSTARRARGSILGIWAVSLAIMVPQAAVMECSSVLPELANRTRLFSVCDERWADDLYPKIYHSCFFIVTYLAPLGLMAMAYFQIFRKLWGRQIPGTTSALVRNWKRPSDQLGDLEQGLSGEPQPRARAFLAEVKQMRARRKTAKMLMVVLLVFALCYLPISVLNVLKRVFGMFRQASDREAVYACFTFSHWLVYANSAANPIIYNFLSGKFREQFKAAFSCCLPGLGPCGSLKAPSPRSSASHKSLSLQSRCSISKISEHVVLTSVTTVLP

CHO-K1 = assay: (§2) Counterscreen for antagonists of the orexin 1 receptor (OX1R; HCRTR1): Homogeneous time resolved fluorescence (HTRF)-based cell-based dose response assay to identify antagonists of the parental CHO-K1 cell line. [Related pubchem assays (depositor defined):AID434989, AID435008, AID463079, AID485270, AID492963, AID492964, AID492965, AID493232, AID504699, AID504701]; assay type: functional; conditions: Cricetulus griseus
[12] = Luminescence Cell-Based Dose Confirmation HTS to Identify Inhibitors of Platelet Dense Granule Release. [Related pubchem assays: 1663 (Primary HTS), 1678 (Summary of Project)]; assay type: functional
[13] = as §2, with “Fluorescence-based” for “Homogeneous time resolved fluorescence (HTRF)-based”, “cell-based high throughput” for “cell-based”, “CHO” for “CHO-K1”; assay type: functional
[14] = biological target: T2, Orexin/Hypocretin receptor type 1; assay: as §1, with “Homogeneous Time Resolved Fluorescence (HTRF)-based” for “Fluorescence-based”; assay type: functional
BJ [15] = assay: BJ-TERT-LT-ST fibroblast viability loss – cell-based, RAS-independent, luminescence, dose response (AID 1935); assay type: functional; conditions: Homo sapiens;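 further: BJ fibroblasts immortalized with TERT plus LT and ST oncogenes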
[16] = HEK-293T viability loss, compound-treated – cell-based, uHTS hits, cytotoxicity control for B/T-cell NF-kB inhibitor project, dose response (AID 489019); assay type: functional;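 further: IC50 reflects cytotoxicity as loss of cell viability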
BJ [17] = assay: cells; assay type: functional, cell-based; conditions: Homo sapiens
BJ [18] = assay: growth inhibition of engineered Ras-driven BJ cells – cell-based, alamar blue fluorescence, cherrypicked samples, dose response (AID 2631); assay type: functional; conditions: Homo sapiens;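 further: confirmatory dose-response assay in RAS-dependent BJ fibroblasts engineered with TERT, LT and ST, with cytotoxicity read by fluorescence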
[19] = DRD fibroblast viability loss – cell-based, non-viral oncogenic, luminescence, dose response (AID 1934); assay type: functional; conditions: Homo sapiens

Chain of Luciferin 4-monooxygenase (P08659 whole entry): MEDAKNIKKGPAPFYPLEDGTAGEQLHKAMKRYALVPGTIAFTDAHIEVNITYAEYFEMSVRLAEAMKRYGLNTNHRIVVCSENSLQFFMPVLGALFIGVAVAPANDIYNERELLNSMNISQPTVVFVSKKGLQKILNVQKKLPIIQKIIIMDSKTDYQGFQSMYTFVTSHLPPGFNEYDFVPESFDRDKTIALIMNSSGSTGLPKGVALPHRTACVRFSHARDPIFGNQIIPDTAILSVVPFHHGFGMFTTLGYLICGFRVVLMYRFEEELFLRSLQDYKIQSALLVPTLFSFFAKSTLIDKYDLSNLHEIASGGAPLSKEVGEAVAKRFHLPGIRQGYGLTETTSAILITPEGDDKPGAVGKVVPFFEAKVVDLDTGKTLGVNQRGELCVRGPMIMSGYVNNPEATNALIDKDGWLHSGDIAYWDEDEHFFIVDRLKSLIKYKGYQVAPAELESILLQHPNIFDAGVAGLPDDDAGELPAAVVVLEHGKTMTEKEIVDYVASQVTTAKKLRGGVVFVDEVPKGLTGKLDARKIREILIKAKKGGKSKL
Chain of CAAX prenyl protease 2 (Q9Y256 whole entry): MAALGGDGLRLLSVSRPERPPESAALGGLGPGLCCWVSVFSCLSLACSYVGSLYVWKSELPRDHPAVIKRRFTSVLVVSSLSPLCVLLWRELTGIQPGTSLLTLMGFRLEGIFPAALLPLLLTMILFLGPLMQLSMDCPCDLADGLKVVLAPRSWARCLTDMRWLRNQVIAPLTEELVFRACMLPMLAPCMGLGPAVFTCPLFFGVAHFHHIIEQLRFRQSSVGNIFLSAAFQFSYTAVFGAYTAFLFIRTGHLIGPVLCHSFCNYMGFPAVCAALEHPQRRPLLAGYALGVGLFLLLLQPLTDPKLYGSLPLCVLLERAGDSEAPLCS
Chain of Trypsin (P00761 whole entry): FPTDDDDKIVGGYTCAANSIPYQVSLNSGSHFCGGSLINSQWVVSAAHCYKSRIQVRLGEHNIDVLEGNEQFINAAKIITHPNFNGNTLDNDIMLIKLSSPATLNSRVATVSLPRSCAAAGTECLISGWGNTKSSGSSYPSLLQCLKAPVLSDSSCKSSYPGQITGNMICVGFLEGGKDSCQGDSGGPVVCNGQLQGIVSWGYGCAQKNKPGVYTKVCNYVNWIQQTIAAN

## COc1cccc(Nc2nc(C)nc3c2oc2ccccc23)c1
CAAX prenyl protease 2
  AC50: 6 µM (active)
Trypsin
  AC50: 17 µM (active)

## Cc1ccc(S(=O)(=O)N2C[C@@H](C)[C@]3(C2)[C@H](O)[C@H](OC(=O)Nc2cccs2)C[C@H]2C(=O)N(c4ccccc4)C(=O)[C@H]23)cc1
Vero
  IC50: 22.1 µM (active)

## CN(C)CCCN(C(=O)CCc1ccccc1)c1nc2ccc(Br)cc2s1
[1]
  CC50: 10.3 µM (active)
[2]
  CC50: 15.7 µM (active)
[3]
  CC50: 13.6 µM (active)
HEK293 [4]
  IC50: 25.4 µM (inactive)
Insulin-degrading enzyme [5]
  EC50: 29.5 µM (inactive)
HEK293 [6]
  EC50: > 55.9 µM (inactive)
cells
  IC50: 12.7 µM (active)
A-375
  AC50: 18.6 µM (active)
[7]
  CC50: 17.6 µM (active)
Insulin-degrading enzyme [8]
  EC50: > 54.7 µM (inactive)

## CCn1c(C)nc2cc(-c3nc4n(n3)Cc3ccccc3-4)ccc21
Jurkat
  IC50: 0.23 µM (active)
[9]
  EC50: 0.311 µM (active)
BJ [10]
  EC50: 2.18 µM (active)
[11]
  IC50: 48.1 µM (inactive)
CHO-K1
  IC50: > 66.2 µM (inactive)
[12]
  EC50: 0.352 µM (active)
[13]
  IC50: > 49.8 µM (inactive)
[14]
  IC50: 2.69 µM (active)
BJ [15]
  EC50: 6.25 µM (active)
[16]
  IC50: > 80 µM (inactive)
BJ [17]
  EC50: 1.76 µM (active)
BJ [18]
  EC50: > 133 µM (inactive)
[19]
  EC50: 1.71 µM (active)
